Measured values: PubChem BioAssay (NCI)
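Briefly, cells in 96-well plates were exposed to five compound concentrations for 48 h, and endpoints were estimated by linear interpolation. At the GI50, growth is halved. Definition used: TGI = concentration required for complete inhibition of growth.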 Where a SMILES comes first, the peptide text is derived from it. [ ]: non-standard residue; d: D form. pGlu = O=C1CC[CH](C(=O)O)N1

Assays:
Test in all cases: DTP human tumour cell line panel, 48 h
HCC-2998 colon = tested on: HCC-2998 colon
OVCAR-5 ovarian = tested on: OVCAR-5 ovarian
SN12C renal = tested on: SN12C renal
RPMI-8226 leukemia = tested on: RPMI-8226 leukemia
OVCAR-8 ovarian = tested on: OVCAR-8 ovarian
SF-295 CNS = tested on: SF-295 CNS
A498 renal = tested on: A498 renal
MOLT-4 leukemia = tested on: MOLT-4 leukemia
TK-10 renal = tested on: TK-10 renal
PC-3 prostate = tested on: PC-3 prostate

Compound | TGI (HCC-2998 colon) [µM] | TGI (OVCAR-5 ovarian) [µM] | TGI (SN12C renal) [µM] | TGI (RPMI-8226 leukemia) [µM] | TGI (OVCAR-8 ovarian) [µM] | TGI (SF-295 CNS) [µM] | TGI (A498 renal) [µM] | TGI (MOLT-4 leukemia) [µM] | TGI (TK-10 renal) [µM] | TGI (PC-3 prostate) [µM] | GI50 (HCC-2998 colon) [µM] | GI50 (OVCAR-5 ovarian) [µM] | GI50 (SN12C renal) [µM] | GI50 (TK-10 renal) [µM] | GI50 (OVCAR-8 ovarian) [µM] | GI50 (SF-295 CNS) [µM] | GI50 (A498 renal) [µM] | GI50 (PC-3 prostate) [µM]
N/C(=N\N=C\c1cc2c(cc1Cl)OCO2)NO | 97.8 | > 61.5 | > 100 | > 72.8 | > 100 | 74.8 | > 100 | > 100 |  |  |  |  |  |  |  |  |  | 
CC(NC(=O)C(Cc1cnc[nH]1)NC(=O)C1CCC(=O)N1)C(N)=O (stereo not drawn) ([pGlu]-His-Ala-NH2; configuration not given here) | > 100 | > 100 | > 100 | > 100 | > 100 | > 100 |  | > 100 | > 100 | > 100 |  |  |  |  |  |  |  | 
N#Cc1ccc(Nc2cnc3ccc(N)cc3n2)cc1 | > 100 | > 100 | > 100 | > 100 | > 100 | > 100 |  | > 100 | > 100 |  |  |  |  |  |  |  |  | 
CNc1ncnc2c1nnn2C | > 100 |  | > 100 | > 100 | > 100 | > 100 | > 100 | > 100 | > 100 | > 100 |  |  |  |  |  |  |  | 
COc1ccc(-c2nnc(-c3c(C)n(C)n(-c4ccccc4)c3=O)o2)cc1 | > 100 |  | > 100 | > 100 | > 100 | > 100 | > 100 | > 100 | > 100 |  |  |  |  |  |  |  |  | 
Cn1cc(-c2nc(-c3c[nH]c4ccncc34)cs2)c2cc(F)ccc21 | 3.08 | 3.11 | 3.32 |  | 4.79 | 3.02 | 3.43 |  | 3.69 | 3.17 | 1.64 | 1.68 | 1.68 | 2.11 | 2.11 | 1.64 | 1.8 | 1.63
COc1cc(C2c3cc4c(cc3OC3(OC)COC(=O)C23)OCO4)cc(OC)c1OC (stereo not given) | 14.9 | > 89.2 | > 80.5 |  | 6.12 | 0.479 | 2.38 | 12.2 | > 100 | > 44.9 |  |  |  |  |  |  |  | 
CC1CC(=O)Nc2ccc(N=NN(C)C)cc2N1C=O (stereo not given) | > 100 | > 100 | > 100 | > 100 | > 100 | > 100 |  | > 100 | > 100 | > 100 |  |  |  |  |  |  |  | 
NNC(=O)CCC(NS(=O)(=O)c1ccc(Cl)cc1)C(=O)NN (stereo not given) | > 100 | > 100 | > 100 |  | > 100 | > 100 | > 100 | > 100 | > 100 | > 100 |  |  |  |  |  |  |  | 
Cc1cc2c(c(C(=O)NCCC(=O)N[C@@H](C)C(=O)OCc3ccccc3)c1)Oc1c(cc(C)cc1C(=O)NCCC(=O)N[C@@H](C)C(=O)OCc1ccccc1)S2 | > 100 | > 100 | > 100 | > 100 | > 100 | > 100 | > 100 | > 100 |  | > 100 |  |  |  |  |  |  |  | 
CC1(C)O[C@H]2OC(CO)C(OS(C)(=O)=O)[C@H]2O1 (stereo not given in full) | > 100 | > 100 | > 100 | > 100 | > 100 | > 100 | > 100 |  | > 100 | > 100 |  |  |  |  |  |  |  | 
C[C@H](N)C(=O)N[C@@H]1[C@H]2C(=C(O)C[C@@H](O)[C@@H]2O)C(=O)O[C@@H]1C | > 100 | > 100 | > 100 | > 100 | > 100 | > 100 | > 100 | > 100 |  |  |  |  |  |  |  |  |  | 
COc1ccc(N=N/C(=N/NC(=O)c2cc(Cl)ccc2C(=O)c2ccccc2)c2ccc(N(CCC#N)CCC#N)cc2C)cc1 | 70.8 | 70 | 47.1 | 44.4 | 46.1 | > 100 |  | 33.8 | 75.1 | 41.4 |  |  |  |  |  |  |  | 
CCCCCCCC(=O)OCC(C[As](=O)(O)O)OC(=O)CCCCCCC (stereo not given) | 31.7 |  | 27.9 | > 100 | 30.3 | 30.6 | 33.2 | 51.9 |  |  |  |  |  |  |  |  |  | 
Cc1ccc(S(=O)(=O)C2c3nc4ccccc4cc3-c3nc4ccccc4nc32)cc1 (stereo not given) | > 100 | > 100 | > 100 | > 100 | > 100 |  | > 100 | > 100 | > 100 |  |  |  |  |  |  |  |  | 
CCOC(=O)C1C[C@H]2CO[C@H](c3ccccc3)N2C1=O (stereo not given in full) | > 100 | > 100 | > 100 | > 100 | > 100 | > 100 |  | > 100 | > 100 | > 100 |  |  |  |  |  |  |  | 
CC1(C)OCC(COC(=O)NCn2cc(-c3ccccc3)nn2)O1 (stereo not given) | > 100 | > 100 | > 100 | > 100 | > 100 | > 100 |  | > 100 | > 100 | > 100 |  |  |  |  |  |  |  | 
O=S(=O)(O)c1cc(Nc2ccnc3ccccc23)c2c(S(=O)(=O)O)cc(S(=O)(=O)O)cc2c1 | > 100 | > 100 | > 100 | > 100 | > 100 |  | > 100 | > 100 | > 100 | > 100 |  |  |  |  |  |  |  | 
N#CCOc1cccc(C2(N3CC=CCC3)CCCCC2)c1 |  | > 100 | > 100 | > 100 | > 100 | > 100 | > 100 | > 100 | > 100 | > 100 |  |  |  |  |  |  |  | 
COc1cc(O)c2c(=O)c(OC)c(-c3ccc4c(c3)OCO4)oc2c1OC | > 50 | > 50 | > 50 |  | > 50 | > 50 | > 50 | > 50 | > 50 | > 50 |  |  |  |  |  |  |  | 
CCCCNC(=S)c1ccc(OC(=O)Nc2ccc(Cl)cc2)cc1 | > 100 | > 100 |  | > 100 | > 100 | > 100 | > 100 | > 100 |  | > 100 |  |  |  |  |  |  |  | 
Cc1c(O)c(=O)ccn1CCc1c[nH]c2ccccc12 |  | > 100 |  | 29.8 | 73.6 | > 100 |  | > 100 | > 100 | > 100 |  |  |  |  |  |  |  | 
